From ChEMBL document CHEMBL4840324, “Bioassay-Guided Isolation of an Abetiane-Type Diterpenoid from Prunella vulgaris That Protects against Concanavalin A-Induced Autoimmune Hepatitis” (J Nat Prod, 2021)
The source made the active and inactive calls. The calls are words filed in the database; no cut-off is given here.

Assays:
[1] = Immunosuppressive activity in human PBMCs assessed as inhibition of anti-CD3/anti-CD28 induced T-cell proliferation at 1.25 uM for 72 hrs by CellTrace Violet staining based flow cytometric analysis (reference value: 63.3 %); type: functional, PBMC; design: scale not given: the % may be the effect or the level left
PBMC [2] = assay: Immunosuppressive activity against anti-CD3/anti-CD28 stimulated human PBMCs assessed as reduction of IFN-gamma secretion at 0.625 to 2.5 uM; type: functional, tissue-based; conditions: dose 0.625-2.5 µM
Splenocyte [3] = assay: Immunosuppressive activity in C57BL/6J mouse splenocytes assessed as inhibition of anti-CD3/anti-CD28 induced T-cell proliferation at 0.3125 uM for 72 hrs by CellTrace Violet staining based flow cytometric analysis (reference value: 78.4 %); type: functional; design: scale not given: the % may be the effect or the level left
[4] = Hepatotoxicity in C57BL/6J mouse at 10 mg/kg, ip administered for 3 days by hematoxylin and eosin staining based immunohistochemical analysis; type: toxicity, organism-based; conditions: in vivo, 72 h, time 3 day
Splenocyte [5] = assay: Immunosuppressive activity in C57BL/6J mouse splenocytes assessed as inhibition of anti-CD3/anti-CD28 induced T-cell proliferation at 0.625 uM for 72 hrs by CellTrace Violet staining based flow cytometric analysis (reference value: 78.4 %); type: functional; design: scale not given: the % may be the effect or the level left
Splenocyte [6] = assay: Immunosuppressive activity against anti-CD3/anti-CD28 stimulated C57BL/6J mouse splenocytes assessed as reduction of IFN-gamma secretion at 0.625 to 2.5 uM; type: functional, cell-based; conditions: dose 0.625-2.5 µM
Splenocyte [7] = assay: Immunosuppressive activity in C57BL/6J mouse splenocytes assessed as inhibition of anti-CD3/anti-CD28 induced T-cell proliferation at 2.5 uM for 72 hrs by CellTrace Violet staining based flow cytometric analysis (reference value: 78.4 %); type: functional; design: scale not given: the % may be the effect or the level left
Mus musculus [8] = assay: Hepatoprotective activity against ConA-induced hepatitis in C57BL/6J mouse assessed as suppression of AST level at 10 mg/kg, ip administered for 3 days by automatic analyzer; type: functional, organism-based; conditions: time 3.0 day
PBMC [9] = assay: Immunosuppressive activity against anti-CD3/anti-CD28 stimulated human PBMCs assessed as reduction of IL-10 secretion at 0.625 to 2.5 uM; type: functional, tissue-based; conditions: dose 0.625-2.5 µM
PBMC [10] = assay: Immunosuppressive activity against anti-CD3/anti-CD28 stimulated human PBMCs assessed as reduction of TNFalpha secretion at 0.625 to 2.5 uM; type: functional, tissue-based; conditions: dose 0.625-2.5 µM
Splenocyte [11] = assay: Immunosuppressive activity in C57BL/6J mouse splenocytes assessed as inhibition of ConA-induced splenocytes proliferation at 0.156 uM measured after 72 hrs by CellTrace Violet staining based flow cytometric analysis (reference value: 63.9 %); type: functional; design: scale not given: the % may be the effect or the level left
[12] = Immunosuppressive activity in human PBMCs assessed as inhibition of anti-CD3/anti-CD28 induced T-cell proliferation at 0.625 uM for 72 hrs by CellTrace Violet staining based flow cytometric analysis (reference value: 63.3 %); type: functional, PBMC; design: scale not given: the % may be the effect or the level left
Mus musculus [13] = assay: Hepatoprotective activity against ConA-induced hepatitis in C57BL/6J mouse assessed as suppression of LDH level at 10 mg/kg, ip administered for 3 days by automatic analyzer; type: functional, organism-based; conditions: time 3.0 day
Splenocyte [14] = assay: Inhibition of ConA-stimulated TNFalpha production in C57BL/6J mouse splenocytes at 0.156 to 1.25 uM; type: functional, cell-based; conditions: dose 0.156-1.25 µM
Mus musculus [15] = assay: Hepatoprotective activity against ConA-induced hepatitis in C57BL/6J mouse assessed as effect on FAS expression at 10 mg/kg, ip administered for 2 days by TUNEL staining based assay; type: functional, organism-based; conditions: time 2.0 day
Mus musculus [16] = assay: Hepatoprotective activity against ConA-induced hepatitis in C57BL/6J mouse assessed as suppression of CD3+ T cells infiltration expression at 10 mg/kg, ip administered for 2 days by TUNEL staining based assay; type: functional, organism-based; conditions: time 2.0 day
Splenocyte [17] = assay: Immunosuppressive activity against anti-CD3/anti-CD28 stimulated C57BL/6J mouse splenocytes assessed as reduction of IL-17 secretion at 0.625 to 2.5 uM; type: functional, cell-based; conditions: dose 0.625-2.5 µM
PBMC [18] = assay: Immunosuppressive activity against anti-CD3/anti-CD28 stimulated human PBMCs assessed as reduction of IL-6 secretion at 0.625 to 2.5 uM; type: functional, tissue-based; conditions: dose 0.625-2.5 µM
Splenocyte [19] = assay: Inhibition of ConA-stimulated IFNgamma production in C57BL/6J mouse splenocytes at 0.156 to 1.25 uM; type: functional, cell-based; conditions: dose 0.156-1.25 µM
Splenocyte [20] = assay: Immunosuppressive activity in C57BL/6J mouse splenocytes assessed as inhibition of ConA-induced splenocytes proliferation at 1.25 uM measured after 72 hrs by CellTrace Violet staining based flow cytometric analysis (reference value: 63.9 %); type: functional; design: scale not given: the % may be the effect or the level left
Splenocyte [21] = assay: Immunosuppressive activity against anti-CD3/anti-CD28 stimulated C57BL/6J mouse splenocytes assessed as reduction of IL-10 secretion at 0.625 to 2.5 uM; type: functional, cell-based; conditions: dose 0.625-2.5 µM
Splenocyte [22] = assay: Inhibition of ConA-stimulated IL-2 production in C57BL/6J mouse splenocytes at 0.156 to 1.25 uM; type: functional, cell-based; conditions: dose 0.156-1.25 µM
Splenocyte [23] = assay: Immunosuppressive activity in C57BL/6J mouse splenocytes assessed as inhibition of ConA-induced splenocytes proliferation at 0.625 uM measured after 72 hrs by CellTrace Violet staining based flow cytometric analysis (reference value: 63.9 %); type: functional; design: scale not given: the % may be the effect or the level left
Splenocyte [24] = assay: Immunosuppressive activity against anti-CD3/anti-CD28 stimulated C57BL/6J mouse splenocytes assessed as reduction of TNFalpha secretion at 0.625 to 2.5 uM; type: functional, cell-based; conditions: dose 0.625-2.5 µM
[25] = Immunosuppressive activity in human PBMCs assessed as inhibition of anti-CD3/anti-CD28 induced T-cell proliferation at 2.5 uM for 72 hrs by CellTrace Violet staining based flow cytometric analysis (reference value: 63.3 %); type: functional, PBMC; design: scale not given: the % may be the effect or the level left
Mus musculus [26] = assay: Hepatoprotective activity against ConA-induced hepatitis in C57BL/6J mouse assessed as effect on cleaved caspase 3 expression at 10 mg/kg, ip administered for 2 days by TUNEL staining based assay; type: functional, organism-based; conditions: time 2.0 day
Splenocyte [27] = assay: Inhibition of ConA-stimulated IL-6 production in C57BL/6J mouse splenocytes at 0.156 to 1.25 uM; type: functional, cell-based; conditions: dose 0.156-1.25 µM
Splenocyte [28] = assay: Immunosuppressive activity against anti-CD3/anti-CD28 stimulated C57BL/6J mouse splenocytes assessed as reduction of IL-6 secretion at 0.625 to 2.5 uM; type: functional, cell-based; conditions: dose 0.625-2.5 µM
Mus musculus [29] = assay: Hepatoprotective activity against ConA-induced hepatitis in C57BL/6J mouse assessed as effect on BCL2 expression at 10 mg/kg, ip administered for 2 days by TUNEL staining based assay; type: functional, organism-based; conditions: time 2.0 day
[30] = Immunosuppressive activity in human PBMCs assessed as inhibition of anti-CD3/anti-CD28 induced T-cell proliferation at 0.3125 uM for 72 hrs by CellTrace Violet staining based flow cytometric analysis (reference value: 63.3 %); type: functional, PBMC; design: scale not given: the % may be the effect or the level left
Splenocyte [31] = assay: Immunosuppressive activity against anti-CD3/anti-CD28 stimulated C57BL/6J mouse splenocytes assessed as reduction of IL-4 secretion at 0.625 to 2.5 uM; type: functional, cell-based; conditions: dose 0.625-2.5 µM
Splenocyte [32] = assay: Immunosuppressive activity in C57BL/6J mouse splenocytes assessed as inhibition of anti-CD3/anti-CD28 induced T-cell proliferation at 1.25 uM for 72 hrs by CellTrace Violet staining based flow cytometric analysis (reference value: 78.4 %); type: functional; design: scale not given: the % may be the effect or the level left
Splenocyte [33] = assay: Immunosuppressive activity in C57BL/6J mouse splenocytes assessed as inhibition of ConA-induced splenocytes proliferation at 0.3125 uM measured after 72 hrs by CellTrace Violet staining based flow cytometric analysis (reference value: 63.9 %); type: functional; design: scale not given: the % may be the effect or the level left
Mus musculus [34] = assay: Hepatoprotective activity against ConA-induced hepatitis in C57BL/6J mouse assessed as suppression of ALT level at 10 mg/kg, ip administered for 3 days by automatic analyzer; type: functional, organism-based; conditions: time 3.0 day

Q: Which Activity [1] does the source give for `COC1=C(C(C)C)C(=O)[C@]23O[C@@]2(C1=O)[C@@]1(C)CC[C@H](O)C(C)(C)[C@@H]1CC3=O` here?
A: Its Activity is 24.9%.

Q: What about the Activity (PBMC [2]) of the same molecule?
A: The Activity was “Active”.

Q: What about the Activity (Splenocyte [3]) of the same molecule?
A: The Activity was 70.2%.

Q: And the Activity [4]?
A: Its Activity is “Non-Toxic”.

Q: What about the Activity (Splenocyte [5]) of the same molecule?
A: The Activity was 68.8%.

Q: And the Activity (Splenocyte [6])?
A: The Activity was “Active”.

Q: What about the Activity (Splenocyte [7]) of the same molecule?
A: Its Activity is 5.48%.

Q: And the Activity (Mus musculus [8])?
A: The Activity was “Active”.

Q: What about the Activity (PBMC [9]) of the same molecule?
A: Its Activity is “Active”.

Q: And the Activity (PBMC [10])?
A: The Activity was “Active”.

Q: What about the Activity (Splenocyte [11]) of the same molecule?
A: The Activity was 51.1%.

Q: What about the Activity [12] of the same molecule?
A: The Activity was 56.4%.

Q: What about the Activity (Mus musculus [13]) of the same molecule?
A: The Activity was “Active”.

Q: And the inhibition (Splenocyte [14])?
A: Its inhibition is “Active”.

Q: What about the Activity (Mus musculus [15]) of the same molecule?
A: Its Activity is “inactive”.

Q: And the Activity (Mus musculus [16])?
A: Its Activity is “Active”.

Q: And the Activity (Splenocyte [17])?
A: The Activity was “Active”.

Q: And the Activity (PBMC [18])?
A: Its Activity is “Active”.

Q: And the inhibition (Splenocyte [19])?
A: The inhibition was “Active”.

Q: What about the Activity (Splenocyte [20]) of the same molecule?
A: Its Activity is 10.8%.

Q: What about the Activity (Splenocyte [21]) of the same molecule?
A: The Activity was “Active”.

Q: And the inhibition (Splenocyte [22])?
A: Its inhibition is “Active”.

Q: And the Activity (Splenocyte [23])?
A: Its Activity is 29.9%.

Q: What about the Activity (Splenocyte [24]) of the same molecule?
A: Its Activity is “Active”.

Q: What about the Activity [25] of the same molecule?
A: Its Activity is 8.24%.

Q: And the Activity (Mus musculus [26])?
A: Its Activity is “inactive”.

Q: And the inhibition (Splenocyte [27])?
A: Its inhibition is “Active”.

Q: And the Activity (Splenocyte [28])?
A: The Activity was “Active”.

Q: And the Activity (Mus musculus [29])?
A: Its Activity is “inactive”.

Q: What about the Activity [30] of the same molecule?
A: Its Activity is 61.3%.

Q: What about the Activity (Splenocyte [31]) of the same molecule?
A: Its Activity is “Active”.

Q: And the Activity (Splenocyte [32])?
A: Its Activity is 7.39%.

Q: What about the Activity (Splenocyte [33]) of the same molecule?
A: The Activity was 42.2%.

Q: And the Activity (Mus musculus [34])?
A: The Activity was “Active”.
